Data set [1] deals with T1, CYP2B6 (Homo sapiens, UniProt P20813).
T1 sequence (P20813 1-491): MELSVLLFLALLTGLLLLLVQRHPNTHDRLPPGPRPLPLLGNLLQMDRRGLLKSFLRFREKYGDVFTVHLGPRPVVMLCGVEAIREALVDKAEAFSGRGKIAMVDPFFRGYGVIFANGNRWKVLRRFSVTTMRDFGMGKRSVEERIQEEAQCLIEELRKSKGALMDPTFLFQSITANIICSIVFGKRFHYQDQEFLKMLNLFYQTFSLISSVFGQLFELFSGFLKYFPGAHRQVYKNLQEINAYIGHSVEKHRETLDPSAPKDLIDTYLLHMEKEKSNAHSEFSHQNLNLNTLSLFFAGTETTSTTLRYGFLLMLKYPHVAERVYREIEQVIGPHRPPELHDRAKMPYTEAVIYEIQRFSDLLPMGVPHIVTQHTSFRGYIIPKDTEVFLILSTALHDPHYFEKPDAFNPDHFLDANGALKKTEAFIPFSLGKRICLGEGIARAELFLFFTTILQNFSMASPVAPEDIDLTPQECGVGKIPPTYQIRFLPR
On the set-up: purchased Sigma Aldrich (CYPexpress, Oxford Biomedical Research, Inc.) MTOXCE2B6; method as in PMID 17433521, PMID 9732386. As to conditions: read-out: Literature KM (converted), cited from earlier work.

Data set [2] has as its target T1, CYP2B6. As to the kind of experiment: pFluor50 Michaelis–Menten kinetics, CYP2B6 with Bzres. Type of data set: in vitro ADME. More on the design: purchased Sigma Aldrich (CYPexpress, Oxford Biomedical Research, Inc.) MTOXCE2B6. The protocol: (§1) In general, the protocol for determination of the Michaelis–Menten kinetic parameters (KM and Vmax) involved addition of the appropriate master mix to phosphate buffer followed by addition of the appropriate amount of enzyme to the mix. The master mix was determined for each specific CPY450 based on empirical methods involving each reagent to obtain a linear range of enzyme activity. A total of 30 µL of this enzyme mix was then added to each well of the 384-well plate. Next, initial background readings were taken for 5 min, after which the appropriate amount of substrate was dispensed into each well using the onboard reagent dispenser of the plate reader. All plates contained one blank well without enzyme (only master mix) for each substrate concentration. […] Table 1 provides the formulation of the master mix for each CYP, the kinetic read time with substrate, the read time interval, the concentration range of the substrate used for the Michaelis–Menten kinetics, the Ex and Em wavelengths, and the concentration of substrate for inhibition/activation screening. Table S1 details the specific parameters used for the plate reader for each CYP–substrate pair.
For determining the Michaelis–Menten kinetic parameters (KM and Vmax) for each CYP–substrate pair, kinetic studies were performed in which a range of different concentrations of the substrate were used. Table 1 details the formulations for the master mix, CYPexpress^TM concentrations, and concentration ranges of each specific substrate. For each CYP–substrate pair, plate reader parameters were set up as described in Table S1. The protocol used for Michaelis–Menten kinetics was similar for all the CYPs. Briefly, the working solution was prepared for each substrate and then primed into one of the dispensers on the plate reader. The other dispenser was primed with the buffer solution. 1.5 mL of phosphate buffer solution (pH 7.4) was used to prepare the master mix with the appropriate concentration of each reagent as specified in Table 1 (NADPH, NADP+, G6P, G6PDH, and/or MgCl2). The amount of CYPexpress reagent in units/(mg/mL) was determined for each enzyme as new lots may have slightly different activities, and the activity of the reagent may change over time. The appropriate mass of each CYPexpress^TM reagent needed to obtain the required units was measured using an analytical balance and was transferred to the master mix solution. This solution was mixed, and 30 µL of the solution was added to each well using a multichannel pipette. In each case, a blank control well was also included, as described in Figure S1. The plate was then transferred to the plate reader and readings were taken at the time intervals, for the appropriate length of time, and at the appropriate wavelengths as specified in Table 1.
Calibration curves were constructed using the determined plate reader settings (Figure S3) and concentrations of the products formed to allow for the calculation of product formation rates based on the observed fluorescence. For these calculations, we presumed that the total increase in observed fluorescence over time was due only to product formation. Calibration curves were generated with 6 different concentrations of the products (fluorescein and resorufin), which spanned the relative fluorescence units (RFU) observed during the kinetic experiments. This allowed for the calculation of product concentrations from the observed RFU, enabling the calculation of the product formation rates. Unfortunately, fluorescein benzyl ester (the product formed from the metabolism of dibenzyl fluorescein) is not commercially available. Therefore, the exact rate of formation could not be determined, and the Vmax for CYP3A4 cleavage of dibenzyl fluorescein has been reported as the rate of change in relative fluorescence units (RFUs) per minute.

The target in data set [3] is T2, CYP3A4 (Homo sapiens, UniProt P08684). More on the design: purchased Sigma Aldrich (CYPexpress, Oxford Biomedical Research, Inc.) MTOXCE3A4. As to conditions: read-out: Literature IC50 (converted), cited from earlier work.
T2 sequence (P08684 2-503 limits assumed): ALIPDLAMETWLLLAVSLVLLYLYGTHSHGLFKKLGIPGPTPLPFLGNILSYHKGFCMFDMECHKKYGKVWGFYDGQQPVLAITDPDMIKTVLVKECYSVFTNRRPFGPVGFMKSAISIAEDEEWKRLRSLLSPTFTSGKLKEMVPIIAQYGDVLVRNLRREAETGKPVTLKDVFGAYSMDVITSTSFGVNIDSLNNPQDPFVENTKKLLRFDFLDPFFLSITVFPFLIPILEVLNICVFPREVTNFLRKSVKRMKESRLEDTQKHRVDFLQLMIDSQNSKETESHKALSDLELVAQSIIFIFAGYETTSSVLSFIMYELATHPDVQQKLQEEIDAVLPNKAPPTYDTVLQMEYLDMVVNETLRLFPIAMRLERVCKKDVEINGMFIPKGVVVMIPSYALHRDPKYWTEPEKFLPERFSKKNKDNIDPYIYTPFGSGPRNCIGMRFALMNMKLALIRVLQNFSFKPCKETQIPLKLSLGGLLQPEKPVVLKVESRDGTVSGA
In data set [4] the target is T2, CYP3A4. As to the kind of experiment: pFluor50 fluorogenic CYP3A4 inhibition (IC50, time dependence).
Data set [5] has as its target T2, CYP3A4. More on the design: purchased Sigma Aldrich (CYPexpress, Oxford Biomedical Research, Inc.) MTOXCE3A4; method as in PMID 11095581, PMID 22252407. As to conditions: read-out: Literature KM (converted); cited from earlier work.
Data set [6] deals with T2, CYP3A4. As to the kind of experiment: pFluor50 Michaelis–Menten kinetics, CYP3A4 with DBF. It is filed as in vitro ADME. On the set-up: purchased Sigma Aldrich (CYPexpress, Oxford Biomedical Research, Inc.) MTOXCE3A4. The protocol: as §1
For determining the Michaelis–Menten kinetic parameters (KM and Vmax) for each CYP–substrate pair, kinetic studies were performed in which a range of different concentrations of the substrate were used. Table 1 details the formulations for the master mix, CYPexpress^TM concentrations, and concentration ranges of each specific substrate. For each CYP–substrate pair, plate reader parameters were set up as described in Table S1. […] Briefly, the working solution was prepared for each substrate and then primed into one of the dispensers on the plate reader. […] The amount of CYPexpress reagent in units/(mg/mL) was determined for each enzyme as new lots may have slightly different activities, and the activity of the reagent may change over time. The appropriate mass of each CYPexpress^TM reagent needed to obtain the required units was measured using an analytical balance and was transferred to the master mix solution. […]

In data set [7] the target is T3, CYP2D6 (Homo sapiens, UniProt P10635). Kind of data set: biochemical.
T3 sequence (P10635 whole entry): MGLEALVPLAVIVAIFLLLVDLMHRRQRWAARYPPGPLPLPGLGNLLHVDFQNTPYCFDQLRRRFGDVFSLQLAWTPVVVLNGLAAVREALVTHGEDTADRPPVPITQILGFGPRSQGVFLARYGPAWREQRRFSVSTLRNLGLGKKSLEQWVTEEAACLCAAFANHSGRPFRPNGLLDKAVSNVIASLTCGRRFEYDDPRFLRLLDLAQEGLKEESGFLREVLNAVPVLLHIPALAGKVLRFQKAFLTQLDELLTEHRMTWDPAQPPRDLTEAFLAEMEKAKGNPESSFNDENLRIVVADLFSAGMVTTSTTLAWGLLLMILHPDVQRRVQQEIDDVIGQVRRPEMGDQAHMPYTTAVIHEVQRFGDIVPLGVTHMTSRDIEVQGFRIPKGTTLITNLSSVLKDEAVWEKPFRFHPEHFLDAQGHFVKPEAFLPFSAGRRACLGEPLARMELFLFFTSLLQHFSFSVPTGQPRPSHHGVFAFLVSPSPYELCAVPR
Data set [8] addresses T1, CYP2B6. As to the kind of experiment: biochemical.
Description: (§2) Therefore, the pre-incubation time between the inhibitor and the CYP was first optimized prior to the full IC50 determinations. […] Therefore, a 10 min pre-incubation time was selected for convenience. […] Therefore, the sertraline pre-incubation time for the inhibition assay was optimized to 30 min (the time at which inhibition was no longer time-dependent).
The target of data set [9] is T1, CYP2B6. As to the kind of experiment: pFluor50 fluorogenic CYP2B6 inhibition (IC50, time dependence). The following applies: 30 µM inhibitor, pre-incubation between 5 and 30 min.
Description: as §2
Data set [10] has as its target T1, CYP2B6. More on the design: purchased Sigma Aldrich (CYPexpress, Oxford Biomedical Research, Inc.) MTOXCE2B6. As to conditions: read-out: Literature IC50 (converted), cited from earlier work.
In data set [11] the target is T3, CYP2D6. Kind of data set: pFluor50 fluorogenic CYP2D6 inhibition (IC50, time dependence). The following applies: 30 µM inhibitor, pre-incubation between 5 and 30 min.
Data set [12] concerns the target T3, CYP2D6. More on the design: purchased Sigma Aldrich (CYPexpress, Oxford Biomedical Research, Inc.) MTOXCE2D6. As to conditions: CYP2D6, Bufuralol/LC-MS/MS; read-out: Literature IC50 (converted); cited from earlier work.
A further data set deals with CYP2C9 (Homo sapiens, UniProt P11712). As to conditions: substrate Eres, model comparison by Akaike's Information Criterion.
Chain of CYP2C9 (P11712 whole entry): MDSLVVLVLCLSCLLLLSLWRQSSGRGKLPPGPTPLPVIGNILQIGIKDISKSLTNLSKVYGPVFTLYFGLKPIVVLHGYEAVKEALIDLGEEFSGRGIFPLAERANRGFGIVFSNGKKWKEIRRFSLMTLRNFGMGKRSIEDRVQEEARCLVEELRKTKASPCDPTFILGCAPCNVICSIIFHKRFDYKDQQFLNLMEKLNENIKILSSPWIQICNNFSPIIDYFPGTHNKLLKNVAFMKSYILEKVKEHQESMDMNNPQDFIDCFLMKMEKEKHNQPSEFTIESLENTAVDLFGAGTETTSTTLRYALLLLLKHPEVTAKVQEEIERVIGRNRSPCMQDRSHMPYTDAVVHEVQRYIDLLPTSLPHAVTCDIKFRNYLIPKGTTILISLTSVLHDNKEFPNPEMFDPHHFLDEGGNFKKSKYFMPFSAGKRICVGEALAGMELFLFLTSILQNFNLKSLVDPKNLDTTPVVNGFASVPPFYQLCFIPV

Consider five molecules from PMC12074421, “Development and Characterization of pFluor50, a Fluorogenic-Based Kinetic Assay System for High-Throughput Inhibition Screening and Characterization of Time-Dependent Inhibition and Inhibition Type for Six Human CYPs” (Molecules, 2025).

Structures are written as SMILES. “And” between values parts separate entries of the source, which are not always exact repeats. Identical values can stand only once. “Also recorded” adds a separate entry of the source. Counter-ions that a name gives are not always drawn. Like-named read-outs stand apart in the source and are kept apart here.

For `O=c1ccc2nc3ccc(OCc4ccccc4)cc3oc-2c1` [Bzres, 7-(benzyloxy)-3H-phenoxazin-3-one], the Km (in general, the concentration of substrate that gives half-maximal velocity) is 1.3 µM at CYP2B6 [1] (CYP2B6, human Bl cell); 34 ± 10.4 µM on CYP2B6 [1] (CYP2B6); 40.6 ± 19.6 µM at CYP2B6 [2] (CYP2B6 1 mg/mL, three biological replicates, read-out: Average KM); 40.6 ± 19.6 µM on CYP2B6 [2] (human, CYPexpress CYP2B6 enzyme reagent, pH 7.4, CYP2B6 1 mg/mL, three biological replicates, read-out: Average KM); 33 µM at CYP2B6 [2] (human, CYPexpress CYP2B6 enzyme reagent, pH 7.4, CYP2B6, biological repeat 1, read-out: KM – repeat 1); 25.9 µM at CYP2B6 [2] (human, CYPexpress CYP2B6 enzyme reagent, pH 7.4, CYP2B6, biological repeat 2, read-out: KM – repeat 2). Besides, on CYP2B6 [2] (human, CYPexpress CYP2B6 enzyme reagent, pH 7.4, CYP2B6, biological repeat 3, read-out: KM – repeat 3), the Km was 62.9 µM. Further, the “Average Vmax” value at CYP2B6 [2] (CYP2B6 1 mg/mL, rate of product formation) was 0.33 ± 0.1 nmol/min; at CYP2B6 [2] (CYP2B6, Table S3), 0.3343 ± 0.1111 nmol/min. The “Vmax – repeat 1” value on CYP2B6 [2] (CYP2B6, biological repeat 1) is reported as 276.3 pmol/min. Besides, on CYP2B6 [2] (CYP2B6, biological repeat 2), the “Vmax – repeat 2” value is listed as 264.2 pmol/min. Besides, the “Vmax – repeat 3” value at CYP2B6 [2] (CYP2B6, biological repeat 3) came out at 462.4 pmol/min.
Take `Cc1ccc(-c2c(-c3nn(C)c4ncnc(N5CC[C@H](N6CCCCC6)C5)c34)cnn2C)cc1` [CYP3cide]: the IC50 (commonly the concentration needed to halve the response being measured) at CYP3A4 [3] (CYP3A4, Midazolam/LC-MS/MS) is 300 ± 20 nM; on CYP3A4 [3] (CYP3A4, Testosterone/LC-MS/MS), 690 nM; on CYP3A4 [4] (read-out: Average IC50, CYP3A4, DBF 4 µM, 5 min pre-incubation, DMSO 0.5%) it was 126 ± 66.2 nM; at CYP3A4 [4] (read-out: IC50 (nM)– repeat 1, CYP3A4, biological repeat 1), 108 nM; on CYP3A4 [4] (read-out: IC50 (nM)– repeat 2, CYP3A4, biological repeat 2), 200 nM; at CYP3A4 [4] (read-out: IC50 (nM)– repeat 3, CYP3A4, biological repeat 3), 70.8 nM. Moreover, on CYP3A4 [4] (0.05 µM inhibitor, pre-incubation between 5 and 30 min), the “Time dependence of CYP3A4 inhibition” value is on record as “time-dependent manner; also recorded: increase with time”.
For `O=C(OCc1ccccc1)c1ccccc1-c1c2ccc(=O)cc-2oc2cc(OCc3ccccc3)ccc12` [DBF, benzyl 2-(6-(benzyloxy)-3-oxo-3H-xanthen-9-yl)benzoate], the Km at CYP3A4 [5] is 0.87 µM and 1.37 µM. Besides, on CYP3A4 [6] (CYP3A4, biological repeat 1), the “Vmax – repeat 1” value was 92.28 RFU/min. Besides, on CYP3A4 [6] (CYP3A4, biological repeat 2), the “Vmax – repeat 2” value is reported as 104.6 RFU/min. Further, on CYP3A4 [6] (CYP3A4, biological repeat 3), the “Vmax – repeat 3” value is 76.71 RFU/min.
Consider `CN[C@H]1CC[C@@H](c2ccc(Cl)c(Cl)c2)c2ccccc21` [Sertraline, sertraline hydrochloride], for which the IC50 was 5790 nM and 3220 nM and 4240 nM and 4420 nM on CYP2D6 [7]; 385 nM and 1390 nM and 477 nM and 752 nM on CYP2B6 [8]; 200 ± 24 nM at CYP2B6 [10] (CYP2B6, Bupropion/LC-MS/MS, ref 52); 1430 nM at CYP2B6 [10] (CYP2B6, Bupropion/LC-MS/MS, ref 54); 3200 nM on CYP2B6 [10] (CYP2B6, HLM, Bupropion/LC-MS/MS); 2000 nM at CYP2D6 [12]. Moreover, the “Time dependence of CYP2B6 inhibition” value at CYP2B6 [9] is “increases with time; also recorded: time-dependent manner”. In addition, at CYP2D6 [11], the “Time dependence of CYP2D6 inhibition” value is on record as “time-dependent manner; also recorded: increase in inhibition with time”.
For `Nc1ccc(S(=O)(=O)Nc2ccnn2-c2ccccc2)cc1` [Sulfaphenazole, sulfaphenazole], the “Type of inhibition of CYP2C9” value on CYP2C9 is reported as “competitive inhibition”.
